Measurements taken from ChEMBL document CHEMBL1201862, “PubChem BioAssay data set” (2004).
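Five concentrations, 48 hours, 96-well plates. GI50: concentration for 50% inhibition of growth.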 Calls of active or inactive are those of the source. Cut-off read from the data, not from the text of the source: active = GI50 up to about 1.1 µM and inactive = higher.

What was measured:
Experiment in all cases: NCI anticancer screen, dose series, 48 h
[1] = test system: HOP-92
[2] = test system: NCI/ADR-RES
[3] = test system: 786-0
[4] = test system: HOP-62
[5] = test system: BT-549
[6] = test system: NCI-H460
[7] = test system: A498
[8] = test system: EKVX
[9] = test system: SK-MEL-2
[10] = test system: OVCAR-4
[11] = test system: Malme-3M
[12] = test system: K562
[13] = test system: MCF7
[14] = test system: NCI-H522
[15] = test system: SNB-19
[16] = test system: KM12
[17] = test system: PC-3
[18] = test system: SF-295
[19] = test system: LOX IMVI
[20] = test system: HCT-116

CCCCCCCCOC(=O)c1cc([N+](=O)[O-])c(Sc2[nH]cnc3ncnc2-3)c([N+](=O)[O-])c1
GI50 [1]: 0.748 µM (active) | GI50 [2]: 3 µM (inactive) | GI50 [3]: 1.47 µM (inactive) | GI50 [4]: 3.03 µM (inactive) | GI50 [5]: 2.95 µM (inactive) | GI50 [6]: 3.4 µM (inactive) | GI50 [7]: 17 µM (inactive) | GI50 [8]: 8.71 µM (inactive) | GI50 [9]: 4.53 µM (inactive) | GI50 [10]: 3.49 µM (inactive) | GI50 [11]: 3.61 µM (inactive) | GI50 [12]: 0.366 µM (active) | GI50 [13]: 1.59 µM (inactive) | GI50 [14]: 1.05 µM (active) | GI50 [15]: 18.1 µM (inactive) | GI50 [16]: 3.45 µM (inactive) | GI50 [17]: 3.21 µM (inactive) | GI50 [18]: 3.12 µM (inactive) | GI50 [19]: 0.296 µM (active) | GI50 [20]: 1.84 µM (inactive)

O=C1CC2(CCC(O)(c3ccc(Cl)cc3)C(C(=O)c3ccc(Cl)cc3)C2)C(=O)c2ccccc2N1 (stereo not drawn)
GI50 [1]: 0.794 µM (active) | GI50 [2]: 11.6 µM (inactive) | GI50 [3]: 1.34 µM (inactive) | GI50 [4]: 3.35 µM (inactive) | GI50 [5]: 19.7 µM (inactive) | GI50 [6]: 3.33 µM (inactive) | GI50 [7]: 17.3 µM (inactive) | GI50 [8]: > 23.6 µM (inactive) | GI50 [9]: > 100 µM (inactive) | GI50 [10]: 0.877 µM (active) | GI50 [11]: > 28.1 µM (inactive) | GI50 [12]: 3.28 µM (inactive) | GI50 [13]: 22.7 µM (inactive) | GI50 [14]: 11.7 µM (inactive) | GI50 [15]: 2.26 µM (inactive) | GI50 [16]: > 100 µM (inactive) | GI50 [17]: > 100 µM (inactive) | GI50 [18]: 6.47 µM (inactive) | GI50 [19]: 11.7 µM (inactive) | GI50 [20]: 6.17 µM (inactive)

CC1(C)C2CCC3=C(CCC4(C)C5C[C@](C)(C(=O)O)CC[C@]5(C)CC[C@]34C)[C@@]2(C)CC[C@@H]1O (stereo partly drawn)
GI50 [1]: 18.6 µM (inactive) | GI50 [2]: 17.9 µM (inactive) | GI50 [3]: 15.9 µM (inactive) | GI50 [4]: 17 µM (inactive) | GI50 [5]: 20.1 µM (inactive) | GI50 [6]: 15.2 µM (inactive) | GI50 [7]: 26.5 µM (inactive) | GI50 [8]: 20.4 µM (inactive) | GI50 [10]: 16.3 µM (inactive) | GI50 [11]: 17.1 µM (inactive) | GI50 [12]: 16.6 µM (inactive) | GI50 [13]: 19.9 µM (inactive) | GI50 [14]: 20 µM (inactive) | GI50 [15]: > 10 µM (inactive) | GI50 [16]: 15.4 µM (inactive) | GI50 [17]: 14.8 µM (inactive) | GI50 [19]: 14.8 µM (inactive) | GI50 [20]: 16.6 µM (inactive)

CN(C)c1ccc(C2C(Cl)C(=O)N2NC(=O)c2c(Cl)c(Cl)c(Cl)c(Cl)c2-c2nc3ccccc3[nH]2)cc1 (stereo not drawn)
GI50 [1]: 5.4 µM (inactive) | GI50 [2]: 21.6 µM (inactive) | GI50 [3]: 2.56 µM (inactive) | GI50 [5]: 13.6 µM (inactive) | GI50 [7]: 22.3 µM (inactive) | GI50 [8]: 18.3 µM (inactive) | GI50 [9]: 21.8 µM (inactive) | GI50 [11]: 16.3 µM (inactive) | GI50 [12]: 4.44 µM (inactive) | GI50 [13]: 5.53 µM (inactive) | GI50 [14]: 2.79 µM (inactive) | GI50 [15]: 30.3 µM (inactive) | GI50 [16]: 17.9 µM (inactive) | GI50 [17]: 12.9 µM (inactive) | GI50 [18]: 42.6 µM (inactive) | GI50 [19]: 7.4 µM (inactive) | GI50 [20]: 5.2 µM (inactive)

COc1cccc2c(N)c3cccc(C(=O)NCCN(C)C)c3nc12
GI50 [1]: 0.163 µM (active) | GI50 [2]: 0.979 µM (active) | GI50 [3]: 0.0339 µM (active) | GI50 [4]: 0.0578 µM (active) | GI50 [5]: 1.19 µM (inactive) | GI50 [7]: 0.281 µM (active) | GI50 [8]: 0.174 µM (active) | GI50 [9]: 0.447 µM (active) | GI50 [10]: 0.157 µM (active) | GI50 [11]: 0.0927 µM (active) | GI50 [12]: 0.0415 µM (active) | GI50 [13]: 0.0146 µM (active) | GI50 [14]: 0.0241 µM (active) | GI50 [15]: 0.134 µM (active) | GI50 [16]: 0.252 µM (active) | GI50 [17]: 0.326 µM (active) | GI50 [18]: 0.297 µM (active) | GI50 [19]: 0.0513 µM (active) | GI50 [20]: 0.0748 µM (active)

O=c1c2cc(-c3ccccc3)cnc2sn1-c1ccc(Br)cc1
GI50 [1]: > 100 µM (inactive) | GI50 [2]: > 100 µM (inactive) | GI50 [3]: > 100 µM (inactive) | GI50 [4]: > 100 µM (inactive) | GI50 [5]: > 100 µM (inactive) | GI50 [6]: > 100 µM (inactive) | GI50 [7]: > 100 µM (inactive) | GI50 [8]: > 100 µM (inactive) | GI50 [9]: > 100 µM (inactive) | GI50 [10]: > 100 µM (inactive) | GI50 [11]: 51.8 µM (inactive) | GI50 [12]: > 100 µM (inactive) | GI50 [13]: > 100 µM (inactive) | GI50 [14]: 47.5 µM (inactive) | GI50 [15]: > 100 µM (inactive) | GI50 [16]: > 100 µM (inactive) | GI50 [17]: > 100 µM (inactive) | GI50 [18]: > 100 µM (inactive) | GI50 [20]: > 100 µM (inactive)
